Several values for one entry are separate records, joined by “and”; a condition that tells them apart may be missing. Identical values can stand only once. Like-named read-outs stand apart in the source and are kept apart here.
Columns and labels:
[1] = Differential pulse voltammetry, quinone reduction potentials; type: physicochemical; settings: DMSO, 0.1 M [N(nBu)4][PF6], 0.1 mM analyte, vs. SCE; for E 1/2 a (V) DPV: first reduction, semiquinone radical (NQ˙–); for E 1/2 b (V) DPV: second reduction, quinone dianion (NQ2–)
Description: A series of electrochemical analyses, including cyclic voltammetry (CV) and differential pulse voltammetry (DPV), were carried out with [NnBu4][PF6] in anhydrous dimethyl sulfoxide (DMSO) in order to evaluate electronic properties of compounds 1–3 and 4[H][Cl]. […] These electrochemical features were attributed to the reduction of the quinone moiety to first produce the semiquinone radical (NQ^–) and then produce the quinone dianion (NQ^2–) forms of compounds 1–3 and 4[H][Cl].[70],[71] The quinone reduction potential in 4[H][Cl] occurs at –0.38 V, the lowest of all the molecules studied, indicative of a positively charged imidazolium ring. The quinone couple at –0.42 V observed for compound 1 is ascribed to the presence of bis(NHC). The same wave in compound 3 appears at a more negative potential (–0.47 V), presumably due to greater trans effects excreted by quinone annulated NHC ligand than the metal-bound chloride. This analysis agrees well with the differences in the observed δ^13C (Au–Ccarbene) resonances for compounds 1 and 3. […]
mM) as referenced to SCE (internal standard Fc0/+, adjusted to 0.435 V vs. SCE).

PC-3 prostate = assay: Cell proliferation (MTT assay) in PC-3 prostate cells; type: cell-based, human; settings: Homo sapiens, Prostate cell; p53 null; Table 3
Description: (§1) Further anti-proliferation studies were carried out with complex 1 and its naphthoquinone component 4[H][Cl] using the following cell lines: A2780 ovarian (a wt-p53 cell line sensitive to platinum treatment), 2780CP ovarian (isogenic to A2780 but expressing multi-drug resistance (MDR)), and PC-3 prostate (p53 null) (Table 3).
(§2) Biological preparations and assays
(§3) Experimental compound preparation. Stock solutions of complexes 1–3, 4[H][Cl], auranofin (Tocris Bioscience 4600), and doxorubicin (Tocris Bioscience 2252) were dissolved in DMSO (2.5–10 mM, depending on the compound and its solubility), aliquoted, and stored at -80 °C prior to use.
(§4) Biological Materials and Cell Lines. Cell lines were obtained from the ATCC (A549 and PC-3) and Prof.
(§5) Zahid Siddik at M.D. Anderson Cancer Center (A2780 and A2780CP). Cell culture plastic ware (i.e. T-75 flasks, treated 6-well plates, treated 96-well plates, and cell scrapers) were obtained from Fisher Scientific. […]
(§6) were made. […] The medium was then removed, the resulting formazan was dissolved in […] DMSO and the respective absorbances were measured at 560–650 nm using a microplate reader (Molecular Devices, Sunnyvale, CA). Absorbance values were corrected for background and then normalized to wells containing untreated cells to allow for plate-to-plate comparisons. […]

2780CP ovarian = assay: Cell proliferation (MTT assay) in 2780CP ovarian cells; type: cell-based, human; settings: Homo sapiens; isogenic to A2780, multi-drug resistance; Table 3
Description: as §1, §2, §3, §4, §5, §6

A549 lung cancer cells [2] = assay: Cell proliferation (MTT assay) in A549 lung cancer cells; type: cell-based, human; settings: for Fold less potent than 1 in cell proliferation: A549
Description: To gauge the ability of each complex to inhibit cancer cell growth, A549 lung cancer cells were treated with 1–3, 4[H][Cl], doxorubicin, and auranofin in a dose responsive manner. Cellular vitality (i.e., mitochondrial reductase activity) was then quantified colorimetrically post treatment using 3-(4,5-dimethylthiazol-2-yl)-2,5-diphenyltetrazolium bromide (MTT assay) (Table 2, Fig. 5).
as §2, §3, §4
Zahid Siddik at M.D. Anderson Cancer Center (A2780 and A2780CP). Cell culture plastic ware (i.e. T-75 flasks, treated 6-well plates, treated 96-well plates, and cell scrapers) were obtained from Fisher Scientific. Cell were cultured in RPMI 1640 culture medium (+2mM glutamine, +25mM HEPES, Corning 10041cv) supplemented with 10% heat-inactivated fetal bovine serum (RMBIO FBS-BBT) and 1X penicillin-streptomycin (Sigma p4333). Unless otherwise noted, incubators were set to 37°C and 5% CO2.
Trypsin (HyClone SH30236.01) and 1X Phosphate Buffered Saline (HyClone SH30258.02, diluted in autoclaved deionized water) were utilized for general cell line maintenance and harvesting. Trace Metal […]
Cell Proliferation Studies. Cells were harvested and seeded into 96-well culture plates (Costar 07-200-90) in 100µL of culture media. They were allowed to incubate overnight at 37 °C in the presence of 5% CO2. […]
and PC-3 at 2000 cells/well. […]
were made. To each well of a 96 well plate was added 100 µL of the appropriate solution. After a total of three days, a […] aliquot of 3 mg/mL tetrazolium dye, 3-(4,5-dimethylthiazol-2-yl)-2,5-diphenyltetrazolium bromide (Alfa Aesar L11939) was added to each well, followed by a 4 hr incubation period at 37 °C. The medium was then removed, the resulting formazan was dissolved in […] DMSO and the respective absorbances were measured at 560–650 nm using a microplate reader (Molecular Devices, Sunnyvale, CA). Absorbance values were corrected for background and then normalized to wells containing untreated cells to allow for plate-to-plate comparisons. The data are shown as mean inhibition of proliferation or growth as a percentage of control cells and are from 2–3 replicate experiments. Resulting dose response curves were subjected to linear regression analysis (Origin by OriginLab, Inc.) for determination of IC50 values.

A549 cells = assay: Detection of intracellular ROS by flow cytometry (CM-H2DCFDA); type: cell-based, human; settings: for Increase in intracellular ROS (fluorescence cell population shift): A549, 2.5 μM, 6 h incubation, CM-H2DCFDA; for Intracellular ROS increase, in words: A549, 0.625–2.5 μM, 6 h
[3] = system: thioredoxin reductase (TrxR); settings: 6 h exposure; for Inhibition of TrxR at higher concentrations: A549, 1.25–5.0 μM, lipoate reduction; for Inhibition of TrxR at low concentrations: A549, 0.1–0.6 μM, lipoate reduction over 180 min
Description: Briefly, plateau phase A549 cells were exposed to variable doses of complexes 1, 3, 4[H][Cl], a 2 : 1 molar ratio of 4[H][Cl] and 5 (cocktail), auranofin, and doxorubicin for 6 h. Post treatment, the live cells were monitored colorimetrically over 180 min for their ability to reduce lipoate (Fig. 8a).

A2780 ovarian = assay: Cell proliferation (MTT assay) in A2780 ovarian cells; type: cell-based, human; settings: Homo sapiens, A2780; wt-p53, platinum sensitive; Table 3
Description: as §1, §2, §3, §4, §5, §6

[4] = system: DNA duplex (5'CCGCAGCCA3'/5'TGGCTGCGG3'); assay: Thermal denaturation of a DNA duplex; type: binding; settings: 1 molar equivalent, 5 μM complex and duplex
A549 lung cancer cells [5] = assay: ICP-MS detection of intracellular Au (cellular uptake)
[6] = Serum protein binding: free Au in fetal bovine serum by ICP-MS; type: in vitro ADME; settings: 25 μM in FBS, 37 °C, methanolic extracts, up to 100 h
Description: To assess potential drug protein interactions, samples of fetal bovine serum (FBS) were treated with 25 μM 1, 3, and auranofin prior to incubating at 37 °C. Aliquots were taken and the free Au (non-protein bound, methanolic extracts) content was analyzed by ICP-MS (Fig. 6b).
Serum Protein Binding Studies.
aliquots were stored at -80°C.
in an Edvotek microcentrifuge. […] Samples
Detection of ROS by Flow Cytometry.
cells were treated with vehicle only.
g) at 5 °C. […] The pellet was
Control samples of unstained cells,
overnight. […] Post incubation, the media was
After incubation, the dye-
Cells were then imaged fluorescently
Lipoate Inhibition Assays.
well culture plates. […] The next day, appropriate
were added to each well. […] Afterwards, the liquid was then

[7] = A549, ratio of IC50 to that of 1 (Table 2)
[8] = A549 lung cancer cells, MTT, 72 h, read-out: IC50

Structure (SMILES)	E 1/2 a (V) DPV [1]	E 1/2 b (V) DPV [1]	IC50 (PC-3 prostate)	IC50 (2780CP ovarian)	Fold less potent than 1 in cell proliferation (A549 lung cancer cells [2])	Fold difference relative to 1 (A549 lung cancer cells [2]; [7])	IC50 (A549 lung cancer cells [2]; Homo sapiens, A549, 72 h, A549 lung cancer cells, MTT, 72 h, read-out: IC50)	IC50 (A549 lung cancer cells [2]; Homo sapiens, A549, Table 3, error = standard error from the mean, read-out: IC50 A549 lung)	Increase in intracellular ROS (fluorescence cell population shift) (A549 cells)	Inhibition of TrxR at higher concentrations [3]	IC50 (A2780 ovarian)	Thermal stabilization of DNA [4]	IC50 (A549 lung cancer cells [2]; [8])	Intracellular ROS increase, in words (A549 cells)	Intracellular Au levels (uptake), in words (A549 lung cancer cells [5])	Free Au (non-protein bound) content over time [6]	Inhibition of TrxR at low concentrations [3]	Increase in intracellular Au concentration as compared to complex 1 (A549 lung cancer cells [5]; A549, regardless of dose)	Fold difference relative to 1 (A549 lung cancer cells [2])	Intracellular Au levels (uptake), in words (A549 lung cancer cells [5]; A549, ICP-MS)
Cc1cc(C)c(-n2c[n+](-c3c(C)cc(C)cc3C)c3c2C(=O)c2ccccc2C3=O)c(C)c1 [4[H][Cl], 1,3-dimesitylnaphthoquinimidazolium]	–0.38 V	–1.15 V	136 ± 20 nM	626 ± 117 nM	~14 fold	13.6	990 ± 120 nM	994 ± 120 nM	~11 fold	became evident	159 ± 58 nM	no thermal stabilization	–	–	–	–	–	–	–	–
Cc1cc(C)c(-n2c3c(n(-c4c(C)cc(C)cc4C)[c]2=[Au]([Cl])=[c]2n(-c4c(C)cc(C)cc4C)c4c(n2-c2c(C)cc(C)cc2C)C(=O)c2ccccc2C4=O)C(=O)c2ccccc2C3=O)c(C)c1 [Complex 2, [bis(1,3-dimesityl-4,5-naphthoquino-imidazol-2-ylidene)-gold(I)] chloride]	–0.46 V	–1.31 V	–	–	–	1	–	–	–	–	–	–	75 nM	–	–	–	–	–	–	–
Cc1cc(C)c(-n2c3c([n+](-c4c(C)cc(C)cc4C)[c]2[Au-][Cl])C(=O)c2ccccc2C3=O)c(C)c1 [Complex 3, 1,3-dimesityl-4,5-naphthoquino-imidazol-2-ylidene)-gold(I) chloride]	–0.47 V	–1.31 V	–	–	> 150 fold and 165 fold	165	–	–	–	remained inactive	–	–	12100 nM	minimal or no ROS increase	no intracellular Au was detected	–	–	–	–	–
CC(=O)OC[C@H]1O[C@@H]([S-])[C@H](OC(C)=O)[C@@H](OC(C)=O)[C@@H]1OC(C)=O.CCP(CC)CC.[Au+] [Auranofin, reference compound]	–	–	–	–	23 fold	22.9	–	–	–	–	–	–	1670 nM	minimal or no ROS increase	–	decreased in a time dependent manner	inhibition of TrxR was apparent	2–5 fold	–	–
COc1cccc2c1C(=O)c1c(O)c3c(c(O)c1C2=O)C[C@@](O)(C(=O)CO)C[C@@H]3O[C@H]1C[C@H](N)[C@H](O)[C@H](C)O1 [Doxorubicin, reference compound]	–	–	–	–	–	–	–	–	–	remained inactive	–	Significant DNA stabilization	–	minimal or no ROS increase	–	–	little to no inhibition	–	1.41	–
Cc1cc(C)c(-[n+]2ccn(Cc3ccccc3)[c]2[Au-][c]2n(Cc3ccccc3)cc[n+]2-c2c(C)cc(C)cc2C)c(C)c1.[Cl-] [Complex 5, bis(1-benzyl-3-mesityl-imidazol-2-ylidene)-gold(I) chloride, reference compound]	–	–	–	–	~10 fold	9.72	–	–	~11 fold	became evident	–	–	710 nM	–	–	–	–	–	–	identical
